Measured values from patent US4744985A, “Novel substances having carcinostatic and immunostimulating activity, process for preparing the same and carcinostatic agent containing the same” (Toyama Chemical Co., Ltd., priority 1979, dated 1988).

How the values were obtained:
B-16 melanoma [1] = test: Antitumor activity against B-16 melanoma (tumor growth); type: in vivo, BDF1 strain mice (male, 7 weeks old); details: 20 mg/kg × 6
Procedure: (§1) (1) B-16 Melanoma tumor cells were subcutaneously transplanted at the armpit to BDF1 strain mice (male, 7 weeks old) in an amount of 1×10^6 cells per mouse. Subsequently, TF-133a was intraperitoneally administered to the mice in a dosage of 5 mg/kg or 10 mg/kg once a day on the first day and from the third day to the seventh day, for 6 days in total, after the transplantation of the tumor cells. In the same manner as above, 0.2 ml of a physiological salt solution was administered to the control group, and 20 mg/kg of 5-FU to the group for 5-FU administration.

B-16 melanoma [2] = test: Metastasis of B-16 melanoma tumor cells to the lungs; type: in vivo, BDF1 strain mice (male, 7 weeks old); details: 20 mg/kg × 6, 21st day
Procedure: as §1
(2) The transplantation of B-16 melanoma tumor cells and the administration of TF-132a, TF-133a, 5-FU and a physiological salt solution were carried out in the same manner as in above (1). On the 21st day after the transplantation of the tumor cells, the mice were dissected, and the metastasis of the melanoma tumor cells to the lungs was observed.

O=c1[nH]cc(F)c(=O)[nH]1 [5-FU]
Average tumor weight (B-16 melanoma [1]): 4.21 g
T/C (B-16 melanoma [1]): 72%
Average number of metastasis (B-16 melanoma [2]): 24.8
Percentage of metastasis inhibition (B-16 melanoma [2]): 20%
